Experimental data taken from patent US20020137154A1, “Methods for improving cell growth and alcohol production during fermentation” (priority 2000, published 2002).

Experiments:
[1] = test system: recombinant Escherichia coli KO11; assay: Batch fermentation of E. coli KO11 in 1% CSL medium and glucose with nutrient additives: ethanol production and cell growth; format: cell-based; details: for activity at 2000 µg/mL: Escherichia coli
Method: (§1) Two types of media were tested: 1% CSL and Luria broth (LB). Each contained 97 g of either xylose or glucose per liter. Luria Broth consists of, per liter: 10 g Difco® Tryptone, 5 g Difco® Yeast Extract and 5 g NaCl. The 1% CSL medium consists of Corn Steep Liquor (1% w/v) plus mineral salts (mineral salts per liter: 1 g of KH2PO4. 0.5 g of K2HPO4, 3.1 g of (NH4)2SO4, 0.4 g of MgCl2·6H2), and 20 mg FeCl3·6H2O).
(§2) Luria Broth was prepared by autoclaving a 2× nutrient stock containing, per liter: 20 g Difco® Tryptone, 10 g Difo® Yeast Extract, and 10 g NaCl. Sugars (xylose or glucose) were autoclaved separately. A 1% CSL medium was prepared as follows: Commercial Corn Steep Liquor (CSL; 50% dry weight/50% water) was diluted with tap water to make a 20X stock containing 100 g dry weight of Corn Steep Liquor/L and was adjusted to pH 7.2 with NaOH (50%). After sterilization by autoclaving, the 20X CSL stock was clarified by centrifugation at 5000×g for 10 minutes. Magnesium was added as a 100× stock solution (40 g/L MgCl2·6H2O). Iron was added as a 1000× stock solution made by dissolving 20 g FeCl3·6H2O in 175 mL of HCl and adjusting to 1 L with sterile water. Nitrogen, sulfur and phosphorus were added using a 20× stock solution containing the following (per liter): 20 g of KH2PO4, 10 g of K2HPO4 and 62 g of (NH4)2SO4. Stock solutions containing minerals were sterilized separately by autoclaving. Final media was prepared by adding 750 mL of water to 1 L bottle containing 100 g of xylose or glucose.
(§3) Inocula were grown in same media used for fermentation and were prepared as follows. Three colonies from a fresh plate were used to inoculate seed cultures: 250-mL flask containing 100 mL medium. These cultures were grown with agitation (120 rpm) for 12-16 hours at 35° C. to a final OD550nm of approximately 2.0-2.5. Cells were harvested by centrifugation at 5000×g for 5 minutes, and resuspended in fresh media to an OD550nm of 0.1. The resulting suspension was distributed into 500-mL beakers containing 345 ml each of fermentation medium. Acetaldehyde was added as indicated. Batch fermentations (35° C., 100 rpm) were maintained at pH 6.5 by the automatic addition of 2N KOH. Cell mass, ethanol, and base addition (2N KOH) were recorded during 96 hours of incubation.
Equivalent amounts of distilled water were added instead of the acetaldehyde in control experiments.
(§4) Additives (e.g., as listed in Table 1) were dissolved in 5 mL di-H2O. Solutions with pH lower than 5 were neutralized to pH 6.5 with 2N KOH. Nutritional supplements were then filter-sterilized (0.45 μm filter disk) directly into the fermentation vessel containing the culture. The final concentration of all additives in the culture medium was 2 g/L unless otherwise indicated.
(§5) Cell mass was estimated by measuring OD550nm using Baush & Lomb® Spectronic 70 spectrophotometer. […] Ethanol was measured by gas chromatography using a Varian® 3400 CX gas chromatograph with 1-propanol as an internal standard.
(§6) Tables 1, 3, and 5 show time to completion of fermentation, ethanol production, and volumetric productivity of the fermentation for all concentrations of the compound and the control. Maximum ethanol production is shown in grams/liter (g/L). The ethanol yield is shown in grams of ethanol/grams of added sugar. Maximum volumetric productivity is shown in grams ethanol/(liter)(hour). The average productivity is calculated form the start of fermentation to the completion of fermentation is grams ethanol/(liter)hour).
Tables 2, 4, and 6 show the initial growth of the cells (OD taken after the first 24 hours of fermentation) and the maximum cell density (the time which culture reaches the maximum OD value).
Acetaldehyde was added to the fermentation medium at five different concentrations and time points. […] Where two additions are indicated, the first volume was added at the start of fermentation and the second was added after 8 hours of fermentation.

[2] = test system: recombinant Escherichia coli KO11; assay: Batch fermentation of E. coli KO11 in 1% CSL medium and xylose with nutrient additives: ethanol production and cell growth; format: cell-based; details: for activity at 2000 µg/mL: Escherichia coli
Method: as §1, §2
as §3, with “incubation. […]” for “incubation.”
as §4, §5, §6
Tables 2, 4, and 6 show the initial growth of the cells (OD taken after the first 24 hours of fermentation) and the maximum cell density (the time which culture reaches the maximum OD value). […]

[3] = 1% CSL+glucose, additive 2 g/L unless indicated
[4] = 24 h, read-out: Initial Growth (OD @ 24 h) % Control, 1% CSL+glucose, additive 2 g/L unless indicated
[5] = read-out: Ethanol Production Maximum % Control, 1% CSL+glucose, additive 2 g/L unless indicated
[6] = read-out: Maximum Cell Density % Control, 1% CSL+glucose, additive 2 g/L unless indicated
[7] = read-out: Volumetric Productivity Average % Control, 1% CSL+glucose, additive 2 g/L unless indicated
[8] = read-out: Volumetric Productivity Maximum % Control, 1% CSL+glucose, additive 2 g/L unless indicated
[9] = 1% CSL+xylose, additive 2 g/L unless indicated
[10] = 24 h, read-out: Initial Growth (OD @ 24 h) % Control, 1% CSL+xylose, additive 2 g/L unless indicated
[11] = read-out: Ethanol Production Maximum % Control, 1% CSL+xylose, additive 2 g/L unless indicated
[12] = read-out: Maximum Cell Density % Control, 1% CSL+xylose, additive 2 g/L unless indicated
[13] = read-out: Volumetric Productivity Average % Control, 1% CSL+xylose, additive 2 g/L unless indicated
[14] = read-out: Volumetric Productivity Maximum % Control, 1% CSL+xylose, additive 2 g/L unless indicated

Row | SMILES | Ethanol Production Maximum [1, 3] [g/L] | Ethanol yield [1, 3] | Initial Growth (OD @ 24 h) OD [1, 3] [OD] | Maximum Cell Density OD [1, 3] [OD] | Volumetric Productivity Average [1, 3] | Volumetric Productivity Maximum [1, 3] | activity at 2000 µg/mL [1, 4] [%] | activity at 2000 µg/mL [1, 5] [%] | activity at 2000 µg/mL [1, 6] [%] | activity at 2000 µg/mL [1, 7] [%] | activity at 2000 µg/mL [1, 8] [%] | Ethanol Production Maximum [2, 9] [g/L] | Ethanol yield [2, 9] | Initial Growth (OD @ 24 h) OD [2, 9] [OD] | Maximum Cell Density OD [2, 9] [OD] | Maximum Cell Density Time [2, 9] [h] | Volumetric Productivity Average [2, 9] | Volumetric Productivity Maximum [2, 9] | activity at 2000 µg/mL [2, 10] [%] | activity at 2000 µg/mL [2, 11] [%] | also measured
1 | C[C@H](N)C(=O)O [Alanine, alanine] | 34.37 | 0.354 grams of ethanol/grams of added sugar | 2.08 | 2.68 | 0.358 grams ethanol/(liter)(hour) | 0.468 grams ethanol/(liter)(hour) | 78 | 92.9 | 99.8 | 92.9 | 91.1 | 21.66 | 0.223 grams of ethanol/grams of added sugar | 1.66 | 1.73 | 48 | 0.226 grams ethanol/(liter)(hour) | 0.240 grams ethanol/(liter)(hour) | 81.3 | 72 | activity at 2000 µg/mL [2, 12]: 68.8%; activity at 2000 µg/mL [2, 13]: 72%; activity at 2000 µg/mL [2, 14]: 65.2%
2 | N[C@@H](CC(=O)O)C(=O)O [Aspartate, aspartate] | 41.79 | 0.430 grams of ethanol/grams of added sugar | 2.86 | 3.79 | 0.580 grams ethanol/(liter)(hour) | 0.759 grams ethanol/(liter)(hour) | 107 | 113 | 141 | 151 | 148 | 27.90 | 0.287 grams of ethanol/grams of added sugar | 1.76 | 2.45 | 72 | 0.291 grams ethanol/(liter)(hour) | 0.304 grams ethanol/(liter)(hour) | 86.3 | 92.7 | activity at 2000 µg/mL [2, 12]: 97.2%; activity at 2000 µg/mL [2, 13]: 92.7%; activity at 2000 µg/mL [2, 14]: 82.4%
3 | O=C(O)CC(O)(CC(=O)O)C(=O)O [Citrate] | 32.87 | 0.338 grams of ethanol/grams of added sugar | 2.43 | 2.58 | 0.342 grams ethanol/(liter)(hour) | 0.502 grams ethanol/(liter)(hour) | 91 | 88.9 | 96 | 88.9 | 97.8 | 28.80 | 0.296 grams of ethanol/grams of added sugar | 2.12 | 2.47 | 96 | 0.300 grams ethanol/(liter)(hour) | 0.339 grams ethanol/(liter)(hour) | 104 | 95.7 | activity at 2000 µg/mL [2, 12]: 98.1%; activity at 2000 µg/mL [2, 13]: 95.7%; activity at 2000 µg/mL [2, 14]: 92%
4 | O=C(O)/C=C/C(=O)O [Fumarate] | 32.92 | 0.339 grams of ethanol/grams of added sugar | 2.67 | 3.17 | 0.343 grams ethanol/(liter)(hour) | 0.559 grams ethanol/(liter)(hour) |  |  |  |  |  | 28.49 | 0.293 grams of ethanol/grams of added sugar | 1.86 | 2.60 | 96 | 0.297 grams ethanol/(liter)(hour) | 0.345 grams ethanol/(liter)(hour) |  |  | Ethanol Production Maximum % Control [1, 3]: 88.98%; Initial Growth (OD @ 24 h) % Control [1, 3]: 99.76%; Maximum Cell Density % Control [1, 3]: 117.92%; Maximum Cell Density Time [1, 3]: 72 h; Time to completion [1, 3]: 96 h; Volumetric Productivity Average % Control [1, 3]: 88.98%; Volumetric Productivity Maximum % Control [1, 3]: 108.88%; Ethanol Production Maximum % Control [2, 9]: 94.73%; Initial Growth (OD @ 24 h) % Control [2, 9]: 91.16%; Maximum Cell Density % Control [2, 9]: 103.15%; Time to completion [2, 9]: >96 h; Volumetric Productivity Average % Control [2, 9]: 94.73%; Volumetric Productivity Maximum % Control [2, 9]: 93.682%
5 | O=C(O)CC(C(=O)O)C(O)C(=O)O (stereo not shown) [Isocitrate] | 33.95 | 0.349 grams of ethanol/grams of added sugar |  |  | 0.471 grams ethanol/(liter)(hour) | 0.588 grams ethanol/(liter)(hour) |  |  |  |  |  | 33.02 | 0.340 grams of ethanol/grams of added sugar |  | 3.01 | 96 | 0.344 grams ethanol/(liter)(hour) | 0.435 grams ethanol/(liter)(hour) |  |  | activity at 2000 µg/mL ([1]; read-out: Ethanol Production Maximum % Control): 91.8%; activity at 2000 µg/mL ([1]; read-out: Volumetric Productivity Average % Control): 122%; activity at 2000 µg/mL ([2]; read-out: Maximum Cell Density % Control): 119%; activity at 2000 µg/mL ([2]; read-out: Volumetric Productivity Maximum % Control): 118%
